# Tests used:
# Assay in all cases: biochemical
# Type in all cases: binding
# [1] = target: 468 kinases including some pathogenic mutants (Homo sapiens, UniProt O00141); settings: SGK (Entrez SGK1), 1000 nM; read-out: Percent Control
# [2] = target: 468 kinases including some pathogenic mutants (Homo sapiens, UniProt P42679); settings: CTK (Entrez MATK), 100 nM; read-out: Percent Control
# [3] = target: 468 kinases including some pathogenic mutants (Homo sapiens, UniProt Q08881); settings: ITK (Entrez ITK), 100 nM; read-out: Percent Control
# [4] = target: 468 kinases including some pathogenic mutants (Homo sapiens, UniProt Q6XUX3); settings: RIPK5 (Entrez DSTYK), 1000 nM; read-out: Percent Control
# [5] = target: 468 kinases including some pathogenic mutants (Homo sapiens, UniProt O14578); settings: CIT (Entrez CIT), 100 nM; read-out: Percent Control
# [6] = target: 468 kinases including some pathogenic mutants (Homo sapiens, UniProt Q86Y07); settings: VRK2 (Entrez VRK2), 1000 nM; read-out: Percent Control
# [7] = target: 468 kinases including some pathogenic mutants (Homo sapiens, UniProt Q9Y2I7); settings: PIKFYVE (Entrez PIKFYVE), 1000 nM; read-out: Percent Control
# Chain of 468 kinases including some pathogenic mutants (Homo sapiens, UniProt Q9Y2I7) (Q9Y2I7 whole entry, change not shown): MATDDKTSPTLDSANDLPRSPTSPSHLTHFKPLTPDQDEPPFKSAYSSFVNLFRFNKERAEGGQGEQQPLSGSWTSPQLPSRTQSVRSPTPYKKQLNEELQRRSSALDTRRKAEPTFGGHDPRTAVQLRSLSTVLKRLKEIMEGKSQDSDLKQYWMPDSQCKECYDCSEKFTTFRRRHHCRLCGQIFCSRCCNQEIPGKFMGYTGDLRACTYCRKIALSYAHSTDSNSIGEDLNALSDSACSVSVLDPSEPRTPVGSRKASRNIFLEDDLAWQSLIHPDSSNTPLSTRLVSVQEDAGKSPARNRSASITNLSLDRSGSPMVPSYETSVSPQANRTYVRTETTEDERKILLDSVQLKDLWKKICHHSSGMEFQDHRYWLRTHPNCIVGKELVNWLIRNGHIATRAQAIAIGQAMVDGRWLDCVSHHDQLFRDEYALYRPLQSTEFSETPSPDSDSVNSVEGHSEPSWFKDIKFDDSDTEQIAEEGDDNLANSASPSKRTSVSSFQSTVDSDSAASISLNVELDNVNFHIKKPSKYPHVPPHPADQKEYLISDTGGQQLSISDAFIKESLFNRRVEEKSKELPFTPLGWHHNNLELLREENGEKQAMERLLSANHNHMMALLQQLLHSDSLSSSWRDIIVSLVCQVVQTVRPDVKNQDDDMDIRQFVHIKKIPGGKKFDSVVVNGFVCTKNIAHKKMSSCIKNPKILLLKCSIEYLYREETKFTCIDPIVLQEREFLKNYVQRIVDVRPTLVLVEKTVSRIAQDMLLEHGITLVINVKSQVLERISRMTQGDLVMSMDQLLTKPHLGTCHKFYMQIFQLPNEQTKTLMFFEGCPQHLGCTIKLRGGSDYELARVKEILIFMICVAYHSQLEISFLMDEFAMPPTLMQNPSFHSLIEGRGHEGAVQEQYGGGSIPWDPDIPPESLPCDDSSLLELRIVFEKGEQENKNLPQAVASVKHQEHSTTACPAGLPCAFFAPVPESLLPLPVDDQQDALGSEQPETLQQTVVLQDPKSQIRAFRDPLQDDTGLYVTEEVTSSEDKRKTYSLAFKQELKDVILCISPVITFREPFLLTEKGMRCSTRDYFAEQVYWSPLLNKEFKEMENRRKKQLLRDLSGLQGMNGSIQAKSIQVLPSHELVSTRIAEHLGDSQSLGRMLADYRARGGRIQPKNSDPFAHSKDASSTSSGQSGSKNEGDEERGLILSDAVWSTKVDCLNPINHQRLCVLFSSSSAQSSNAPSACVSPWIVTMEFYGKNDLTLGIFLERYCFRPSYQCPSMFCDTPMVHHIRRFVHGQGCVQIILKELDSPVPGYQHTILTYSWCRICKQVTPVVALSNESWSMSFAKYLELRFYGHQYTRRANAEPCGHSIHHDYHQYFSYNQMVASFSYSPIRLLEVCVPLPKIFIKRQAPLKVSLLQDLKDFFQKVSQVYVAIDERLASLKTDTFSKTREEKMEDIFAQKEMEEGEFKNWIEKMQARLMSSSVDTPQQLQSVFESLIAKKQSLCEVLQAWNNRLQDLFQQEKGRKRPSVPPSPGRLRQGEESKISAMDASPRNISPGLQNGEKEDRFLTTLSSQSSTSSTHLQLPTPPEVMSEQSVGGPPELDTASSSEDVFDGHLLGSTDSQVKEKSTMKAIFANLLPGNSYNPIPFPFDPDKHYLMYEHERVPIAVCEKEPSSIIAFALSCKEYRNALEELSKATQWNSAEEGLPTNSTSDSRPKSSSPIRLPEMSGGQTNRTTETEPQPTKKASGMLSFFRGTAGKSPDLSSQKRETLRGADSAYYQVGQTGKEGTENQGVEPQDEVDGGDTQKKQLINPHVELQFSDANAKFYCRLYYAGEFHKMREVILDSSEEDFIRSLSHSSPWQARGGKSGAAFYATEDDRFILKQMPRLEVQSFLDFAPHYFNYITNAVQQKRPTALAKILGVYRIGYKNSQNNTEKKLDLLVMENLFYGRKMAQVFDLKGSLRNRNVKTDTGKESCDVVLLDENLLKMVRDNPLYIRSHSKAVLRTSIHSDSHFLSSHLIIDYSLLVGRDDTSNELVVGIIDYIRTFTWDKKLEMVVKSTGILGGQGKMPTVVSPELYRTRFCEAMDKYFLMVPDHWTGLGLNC
# [8] = target: 468 kinases including some pathogenic mutants (Homo sapiens, UniProt P24723); settings: PRKCH (Entrez PRKCH), 1000 nM; read-out: Percent Control
# [9] = target: 468 kinases including some pathogenic mutants (Homo sapiens, UniProt Q05655); settings: PRKCD (Entrez PRKCD), 1000 nM; read-out: Percent Control
# [10] = target: 468 kinases including some pathogenic mutants (Homo sapiens, UniProt P53355); settings: DAPK1 (Entrez DAPK1), 100 nM; read-out: Percent Control
# [11] = target: 468 kinases including some pathogenic mutants (Homo sapiens, UniProt Q9HBH9); settings: MKNK2 (Entrez MKNK2), 1000 nM; read-out: Percent Control
# [12] = target: 468 kinases including some pathogenic mutants (Homo sapiens, UniProt P16591); settings: FER (Entrez FER), 100 nM; read-out: Percent Control
# [13] = target: 468 kinases including some pathogenic mutants (Homo sapiens, UniProt P41240); settings: CSK (Entrez CSK), 100 nM; read-out: Percent Control
# Chain of 468 kinases including some pathogenic mutants (Homo sapiens, UniProt P41240) (P41240 whole entry, change not shown): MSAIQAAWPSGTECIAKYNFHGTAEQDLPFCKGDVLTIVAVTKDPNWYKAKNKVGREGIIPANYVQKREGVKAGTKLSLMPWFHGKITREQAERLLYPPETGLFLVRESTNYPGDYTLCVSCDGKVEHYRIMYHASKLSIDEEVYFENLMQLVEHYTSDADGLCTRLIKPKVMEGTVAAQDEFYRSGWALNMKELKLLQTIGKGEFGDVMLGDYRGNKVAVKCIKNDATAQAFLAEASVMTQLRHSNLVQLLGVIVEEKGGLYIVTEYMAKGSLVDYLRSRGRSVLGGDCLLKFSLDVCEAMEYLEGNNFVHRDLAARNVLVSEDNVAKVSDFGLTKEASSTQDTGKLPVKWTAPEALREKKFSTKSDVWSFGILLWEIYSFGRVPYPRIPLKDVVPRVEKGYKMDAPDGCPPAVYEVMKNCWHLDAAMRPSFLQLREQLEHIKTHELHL
# [14] = target: 468 kinases including some pathogenic mutants (Homo sapiens, UniProt P51817); settings: PRKX (Entrez PRKX), 100 nM; read-out: Percent Control
# [15] = target: 468 kinases including some pathogenic mutants (Homo sapiens, UniProt O43283); settings: LZK (Entrez MAP3K13), 100 nM; read-out: Percent Control
# [16] = target: 468 kinases including some pathogenic mutants (Homo sapiens, UniProt Q9UIK4); settings: DAPK2 (Entrez DAPK2), 100 nM; read-out: Percent Control
# [17] = target: 468 kinases including some pathogenic mutants (Homo sapiens, UniProt Q86Z02); settings: HIPK1 (Entrez HIPK1), 100 nM; read-out: Percent Control
# [18] = target: 468 kinases including some pathogenic mutants (Homo sapiens, UniProt Q9NSY1); settings: BIKE (Entrez BMP2K), 100 nM; read-out: Percent Control
# [19] = target: 468 kinases including some pathogenic mutants (Homo sapiens, UniProt Q52WX2); settings: SBK1 (Entrez SBK1), 1000 nM; read-out: Percent Control
# Chain of 468 kinases including some pathogenic mutants (Homo sapiens, UniProt Q52WX2) (Q52WX2 whole entry, change not shown): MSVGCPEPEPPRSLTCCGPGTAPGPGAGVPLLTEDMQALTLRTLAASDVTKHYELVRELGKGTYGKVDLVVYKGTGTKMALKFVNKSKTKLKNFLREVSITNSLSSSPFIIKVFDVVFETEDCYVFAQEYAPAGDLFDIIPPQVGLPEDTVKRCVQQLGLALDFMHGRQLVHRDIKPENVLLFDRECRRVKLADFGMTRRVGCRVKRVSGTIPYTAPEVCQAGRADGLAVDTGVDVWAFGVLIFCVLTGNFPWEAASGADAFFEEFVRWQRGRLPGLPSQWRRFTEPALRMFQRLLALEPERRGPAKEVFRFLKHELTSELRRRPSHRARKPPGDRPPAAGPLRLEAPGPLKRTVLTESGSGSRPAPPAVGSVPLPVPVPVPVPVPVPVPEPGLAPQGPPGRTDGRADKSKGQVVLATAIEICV
# [20] = target: 468 kinases including some pathogenic mutants (Homo sapiens, UniProt Q9BYT3); settings: STK33 (Entrez STK33), 1000 nM; read-out: Percent Control
# [21] = target: 468 kinases including some pathogenic mutants (Homo sapiens, UniProt Q04912); settings: MST1R (Entrez MST1R), 100 nM; read-out: Percent Control
# Chain of 468 kinases including some pathogenic mutants (Homo sapiens, UniProt Q04912) (Q04912 25-1400, change not shown): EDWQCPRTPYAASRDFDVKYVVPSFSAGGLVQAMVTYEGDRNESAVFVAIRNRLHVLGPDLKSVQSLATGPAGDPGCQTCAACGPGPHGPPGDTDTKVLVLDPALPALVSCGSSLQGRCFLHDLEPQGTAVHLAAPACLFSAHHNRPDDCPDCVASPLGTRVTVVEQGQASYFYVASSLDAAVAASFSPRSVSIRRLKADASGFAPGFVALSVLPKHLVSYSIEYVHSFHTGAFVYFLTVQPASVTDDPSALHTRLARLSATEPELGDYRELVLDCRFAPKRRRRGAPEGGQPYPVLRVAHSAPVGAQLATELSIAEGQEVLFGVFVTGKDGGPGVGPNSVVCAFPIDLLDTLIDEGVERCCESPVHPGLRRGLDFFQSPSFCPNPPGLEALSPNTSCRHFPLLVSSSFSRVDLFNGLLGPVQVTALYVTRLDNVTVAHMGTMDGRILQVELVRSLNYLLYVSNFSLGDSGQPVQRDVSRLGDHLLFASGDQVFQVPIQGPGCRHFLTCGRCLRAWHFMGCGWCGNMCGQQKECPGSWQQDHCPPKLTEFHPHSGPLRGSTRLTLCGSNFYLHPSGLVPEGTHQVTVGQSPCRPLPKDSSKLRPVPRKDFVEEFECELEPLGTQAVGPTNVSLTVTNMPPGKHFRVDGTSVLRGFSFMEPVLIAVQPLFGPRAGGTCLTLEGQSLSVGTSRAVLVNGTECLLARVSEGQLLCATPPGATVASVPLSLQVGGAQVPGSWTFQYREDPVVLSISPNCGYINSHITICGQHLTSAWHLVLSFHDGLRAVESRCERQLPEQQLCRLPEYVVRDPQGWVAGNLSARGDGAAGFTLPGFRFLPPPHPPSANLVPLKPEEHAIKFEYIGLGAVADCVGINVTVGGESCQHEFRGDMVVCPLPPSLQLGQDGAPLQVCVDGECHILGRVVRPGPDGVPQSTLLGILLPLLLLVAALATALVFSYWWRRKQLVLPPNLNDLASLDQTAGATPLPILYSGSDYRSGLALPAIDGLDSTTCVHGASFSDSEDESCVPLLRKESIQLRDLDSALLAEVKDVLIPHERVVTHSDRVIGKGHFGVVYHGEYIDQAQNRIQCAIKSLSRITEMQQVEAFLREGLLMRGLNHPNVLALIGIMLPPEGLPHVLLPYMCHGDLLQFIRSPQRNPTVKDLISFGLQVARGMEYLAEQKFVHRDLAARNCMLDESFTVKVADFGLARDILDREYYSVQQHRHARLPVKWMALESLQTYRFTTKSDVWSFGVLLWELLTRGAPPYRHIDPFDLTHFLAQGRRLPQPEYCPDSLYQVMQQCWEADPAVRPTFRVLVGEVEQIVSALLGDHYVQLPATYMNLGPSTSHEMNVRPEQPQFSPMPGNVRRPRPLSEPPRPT
# [22] = target: 468 kinases including some pathogenic mutants (Homo sapiens, UniProt Q9H0K1); settings: SIK2 (Entrez SIK2), 1000 nM; read-out: Percent Control
# [23] = target: 468 kinases including some pathogenic mutants (Homo sapiens, UniProt O60331); settings: PIP5K1C (Entrez PIP5K1C), 1000 nM; read-out: Percent Control
# [24] = target: 468 kinases including some pathogenic mutants (Homo sapiens, UniProt Q13237); settings: PRKG2 (Entrez PRKG2), 100 nM; read-out: Percent Control
# [25] = target: 468 kinases including some pathogenic mutants (Homo sapiens, UniProt Q12866); settings: MERTK (Entrez MERTK), 100 nM; read-out: Percent Control
# [26] = target: 468 kinases including some pathogenic mutants (Homo sapiens, UniProt O75914); settings: PAK3 (Entrez PAK3), 100 nM; read-out: Percent Control
# [27] = target: 468 kinases including some pathogenic mutants (Homo sapiens, UniProt Q9BYP7); settings: WNK3 (Entrez WNK3), 100 nM; read-out: Percent Control
# [28] = target: 468 kinases including some pathogenic mutants (Homo sapiens, UniProt Q96Q40); settings: PFTAIRE2 (Entrez CDK15), 100 nM; read-out: Percent Control
# Chain of 468 kinases including some pathogenic mutants (Homo sapiens, UniProt P42679) (P42679 whole entry, change not shown): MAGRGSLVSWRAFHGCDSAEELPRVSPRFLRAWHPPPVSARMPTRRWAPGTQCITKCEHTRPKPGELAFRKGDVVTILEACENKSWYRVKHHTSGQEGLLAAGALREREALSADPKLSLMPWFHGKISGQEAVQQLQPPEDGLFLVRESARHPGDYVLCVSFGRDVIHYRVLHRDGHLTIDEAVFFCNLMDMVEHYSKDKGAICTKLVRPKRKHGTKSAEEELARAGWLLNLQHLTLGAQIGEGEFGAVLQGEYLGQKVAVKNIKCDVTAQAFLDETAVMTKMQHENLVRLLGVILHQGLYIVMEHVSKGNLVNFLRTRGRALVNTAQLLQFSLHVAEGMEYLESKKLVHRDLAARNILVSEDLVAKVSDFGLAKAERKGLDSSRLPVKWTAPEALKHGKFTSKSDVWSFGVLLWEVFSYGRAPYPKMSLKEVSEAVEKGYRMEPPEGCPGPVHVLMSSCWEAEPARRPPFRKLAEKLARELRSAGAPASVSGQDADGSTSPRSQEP
smiles,measurement,setting,value
"CN1C(=O)[C@@H](N2CCc3c(nn(Cc4ccccc4)c3C(N)=O)C2=O)COc2cc(Cl)ccc21 [Compound 10, (S)-2-benzyl-6-(8-chloro-5-methyl-4-oxo-2,3,4,5-tetrahydrobenzo[b][1,4]oxazepin-3-yl)-7-oxo-4,5,6,7-tetrahydro-2H-pyrazolo[3,4-c]pyridine-3-carboxamide]",remaining activity at 1 µM,[1],100%
same,remaining activity at 0.1 µM,[2],100%
same,remaining activity at 0.1 µM,[3],79%
same,remaining activity at 1 µM,[4],100%
same,remaining activity at 0.1 µM,[5],95%
same,remaining activity at 1 µM,[6],100%
same,remaining activity at 1 µM,[7],100%
same,remaining activity at 1 µM,[8],100%
same,remaining activity at 1 µM,[9],100%
same,remaining activity at 0.1 µM,[10],93%
same,remaining activity at 1 µM,[11],100%
same,remaining activity at 0.1 µM,[12],100%
same,remaining activity at 0.1 µM,[13],83%
same,remaining activity at 0.1 µM,[14],77%
same,remaining activity at 0.1 µM,[15],100%
same,remaining activity at 0.1 µM,[16],70%
same,remaining activity at 0.1 µM,[17],73%
same,remaining activity at 0.1 µM,[18],67%
same,remaining activity at 1 µM,[19],100%
same,remaining activity at 1 µM,[20],100%
same,remaining activity at 0.1 µM,[21],82%
same,remaining activity at 1 µM,[22],100%
same,remaining activity at 1 µM,[23],100%
same,remaining activity at 0.1 µM,[24],77%
same,remaining activity at 0.1 µM,[25],72%
same,remaining activity at 0.1 µM,[26],53%
same,remaining activity at 0.1 µM,[27],73%
same,remaining activity at 0.1 µM,[28],82%

# — paper PMC12090182, “Repurposing of the RIPK1-Selective Benzo[1,4]oxazepin-4-one Scaffold for the Development of a Type III LIMK1/2 Inhibitor” (ACS Chemical Biology, 2025)
